# Legend:
# [1] = one enantiomeric form vs the other form; background statement; cited from earlier work
# [2] = system: P. Aeruginosa 5007; test: Mouse protection test, P. Aeruginosa 5007; format: in vivo; details: Pseudomonas aeruginosa
# From the text: (§1) The differences in in vivo antibacterial activity of racemic (R,S) compound (A) versus the (S) enantiomeric form of compound (A) are shown in Table I. |POTENCY OF (A) IN MOUSE PROTECTION TESTS | ED50 (mg/kg/day)
# [3] = system: S. Aureus NCTC 10649; test: Mouse protection test, S. Aureus NCTC 10649; format: in vivo; details: Staphylococcus aureus
# From the text: as §1
# [4] = system: E. Coli Juhl; test: Mouse protection test, E. Coli Juhl; format: in vivo; details: Escherichia coli
# From the text: as §1
# [5] = racemic mixture; J. Med. Chem., 29, 2363 (1986); cited from earlier work
SMILES,"activity in raising blood pressure, one enantiomeric form versus the other [1]",ED50 ([2]; oral),"ED50 ([2]; sc, subcutaneous)","ED50 ([3]; NCTC10649, oral)","ED50 ([3]; NCTC10649, sc, subcutaneous)",ED50 ([4]; oral),"ED50 ([4]; sc, subcutaneous)",antibacterial properties [5]
CNCC(O)c1ccc(O)c(O)c1 (centres unmarked) [adrenalin],over ten times more active,–,–,–,–,–,–,–
"N[C@H]1CCN(c2nc3c(cc2F)c(=O)c(C(=O)O)cn3-c2ccc(F)cc2F)C1 [(S)--(A), (S)-7-(3-aminopyrrolidin-1-yl)-1-(o,p-difluorophenyl)-1,4-dihydro-6-fluoro-4-oxo-1,8-naphthyridine-3-carboxylic acid]",–,12.1 mg/kg,8.6 mg/kg,0.8 mg/kg,0.4 mg/kg,0.8 mg/kg,0.2 mg/kg,–
"NC1CCN(c2nc3c(cc2F)c(=O)c(C(=O)O)cn3-c2ccc(F)cc2F)C1 (racemic) [(R,S)--(A), 7-(3-aminopyrrolidin-1-yl)-1-(o,p-difluorophenyl)-1,4-dihydro-6-fluoro-4-oxo-1,8-naphthyridine-3-carboxylic acid]",–,16 mg/kg,> 20 mg/kg,1 mg/kg,0.4 mg/kg,1.2 mg/kg,0.3 mg/kg,has been shown to exhibit antibacterial properties

# From patent US4859776A, “(S)-7-(3-aminopyrrolidin-1-yl)-1-(ortho, para-difluorophenyl)-1,4-dihydro-6-fluoro-4-oxo-1,8-naphthyridine-3-carb oxylic acid and method for its preparation” (Abbott Laboratories, priority 1988, dated 1989)
